Consider 44 compounds from patent US8993604B2, “Treatment and prevention of dengue virus infections” (Siga Technologies, Inc., priority 2009, dated 2015).

In this experiment the test system is Dengue-2 (Strain New Guinea C). Nature of the experiment: Viral yield assay in Vero cells. Particulars: Dengue virus, read-out: Activity (anti-dengue 2 viral activity, EC50 class). The format is cell-based. How it is done:
Compounds that were active in the primary screen were tested for activity in viral yield assays. […] Vero cells in 12-well plates were infected with dengue-2 virus at a multiplicity of infection (MOI) of 0.1, treated with compound (or DMSO as a control), incubated at 37° C., harvested 48 hours post infection and titered on Vero cells as described above. The EC50 was calculated through ExcelFit. Activities against other serotypes of dengue virus were determined in a similar way.

Setting [1] is: Vero cells, MOI 0.1, harvested 48 hours post infection.

Usually pEC50 stands for the negative decadic logarithm of the EC50, by convention in mol/L.

pEC50: −log10 of the molar value. Like-named read-outs stand apart in the source and are kept apart here.

Turning to `COC(=O)c1cc(C(=O)Nc2ccc(-c3nc4ccc(C)cc4s3)cc2)cc([N+](=O)O)c1` [Compound 81, N-[4-(6-Methyl-benzothiazol-2-yl)-phenyl]-5-nitro-isophthalamic acid methyl ester], the pEC50 under setting [1] is less than 4.60.
As to `N#Cc1ccc(C(=O)Nc2ccc(Cl)c(-c3nc4ccccc4s3)c2)c(F)c1` [Compound 82, N-(3-Benzothiazol-2-yl-4-chloro-phenyl)-4-cyano-2-fluoro-benzamide], the pEC50 under setting [1] is less than 4.60.
The same measure, in the same setting: for `O=C(Nc1cccc(-c2nc3ccccc3s2)c1)c1ccccc1I` [Compound 83, N-(3-Benzothiazol-2-yl-phenyl)-2-iodo-benzamide] the value was less than 4.60; for `COc1ccc(C(=O)Nc2cccc(-c3nc4ccccc4s3)c2)cc1[N+](=O)[O-]` [Compound 84, N-(3-Benzothiazol-2-yl-phenyl)-4-methoxy-3-nitro-benzamide], less than 4.60; for `Cc1cc(C(=O)Nc2ccc(-c3nc4ccccc4s3)cc2)ccc1[N+](=O)[O-]` [Compound 85, N-(4-Benzothiazol-2-yl-phenyl)-3-methyl-4-nitro-benzamide], less than 4.60.
Same read-out and setting: in the case of `COc1cc(OC)cc(C(=O)Nc2ccc(Cl)c(-c3nc4ccccc4s3)c2)c1` [Compound 86, N-(3-Benzothiazol-2-yl-4-chloro-phenyl)-3,5-dimethoxy-benzamide] it was less than 4.60.
Regarding `Cc1ccc(C(=O)Nc2ccc(-c3nc4ccc(C)cc4s3)cc2)c(Cl)c1` [Compound 87, 2-Chloro-4-methyl-N-[4-(6-methyl-benzothiazol-2-yl)-phenyl]-benzamide], the pEC50 under setting [1] is less than 4.60.
As for `COc1ccc(C(=O)Nc2ccc(-c3nc4ccccc4s3)cc2)cc1[N+](=O)[O-]` [Compound 88, N-(4-Benzothiazol-2-yl-phenyl)-4-methoxy-3-nitro-benzamide], the pEC50 under setting [1] was less than 4.60.
Still for that read-out and setting: in the case of `Cc1ccc(C(=O)Nc2cccc(-c3nc4ccccc4s3)c2)cc1` [Compound 89, N-(3-Benzothiazol-2-yl-phenyl)-4-methyl-benzamide] it was less than 4.60.
For the compound `O=C(Nc1cccc(-c2nc3ccccc3s2)c1)c1ccc(F)cc1` [Compound 90, N-(3-Benzothiazol-2-yl-phenyl)-4-fluoro-benzamide], the pEC50 under setting [1] was less than 4.60.
`COc1ccc(C(=O)Nc2cccc(-c3nc4ccccc4s3)c2)cc1` [Compound 91, N-(3-Benzothiazol-2-yl-phenyl)-4-methoxy-benzamide]: under setting [1], the pEC50 was less than 4.60.
Still for that read-out and setting: for `Cc1ccccc1C(=O)Nc1cccc(-c2nc3ccccc3s2)c1` [Compound 92, N-(3-Benzothiazol-2-yl-phenyl)-2-methyl-benzamide] the value was less than 4.60; for `O=C(Nc1ccccc1-c1nc2ccccc2s1)c1ccccc1F` [Compound 93, N-(2-Benzothiazol-2-yl-phenyl)-2-fluoro-benzamide], less than 4.60; for `CCN(CC)S(=O)(=O)c1ccc(C(=O)Nc2ccccc2-c2nc3ccccc3s2)cc1` [Compound 94, N-(2-Benzothiazol-2-yl-phenyl)-4-diethylsulfamoyl-benzamide], less than 4.60.
On the same count and under the same terms, for `COc1cccc(OC)c1C(=O)Nc1ccc(-c2nc3ccccc3s2)cc1` [Compound 95, N-(4-Benzothiazol-2-yl-phenyl)-2,6-dimethoxy-benzamide] the value was less than 4.60; for `O=C(Nc1cccc(-c2nc3ccccc3s2)c1)c1ccc(N2CCCC2)c([N+](=O)[O-])c1` [Compound 96, N-(3-Benzothiazol-2-yl-phenyl)-3-nitro-4-pyrrolidin-1-yl-benzamide], less than 4.60.
Still for that read-out and setting: in the case of `O=C(Nc1ccccc1-c1nc2ccccc2s1)c1cccc(Cl)c1Cl` [Compound 97, N-(2-Benzothiazol-2-yl-phenyl)-2,3-dichloro-benzamide] it was less than 4.60; in that of `O=C(Nc1ccccc1-c1nc2ccccc2s1)c1ccc([N+](=O)[O-])cc1Cl` [Compound 98, N-(2-Benzothiazol-2-yl-phenyl)-2-chloro-4-nitro-benzamide], less than 4.60.
On to `Cc1ccc(C(=O)Nc2ccccc2-c2nc3ccccc3s2)cc1C` [Compound 99, N-(2-Benzothiazol-2-yl-phenyl)-3,4-dimethyl-benzamide], for which the pEC50 under setting [1] is less than 4.60.
Still for that read-out and setting: in the case of `COc1c(Cl)cc(Cl)cc1C(=O)Nc1ccccc1-c1nc2ccccc2s1` [Compound 100, N-(2-Benzothiazol-2-yl-phenyl)-3,5-dichloro-2-methoxy-benzamide] it was less than 4.60; in that of `CCC(C)Oc1ccc(C(=O)Nc2ccccc2-c2nc3ccccc3s2)cc1` (centres unmarked) [Compound 101, N-(2-Benzothiazol-2-yl-phenyl)-4-sec-butoxy-benzamide], less than 4.60.
Consider `O=C(Nc1ccccc1-c1nc2ccccc2s1)c1cc(Br)ccc1Cl` [Compound 102, N-(2-Benzothiazol-2-yl-phenyl)-5-bromo-2-chloro-benzamide], for which the pEC50 under setting [1] was less than 4.60.
On the same count and under the same terms, in the case of `O=C(Nc1ccccc1-c1nc2ccccc2s1)c1cccc(I)c1` [Compound 103, N-(2-Benzothiazol-2-yl-phenyl)-3-iodo-benzamide] it was less than 4.60.
Still for that read-out and setting: for `COc1cc(OC)cc(C(=O)Nc2ccccc2-c2nc3ccccc3s2)c1` [Compound 104, N-(2-Benzothiazol-2-yl-phenyl)-3,5-dimethoxy-benzamide] the value was less than 4.60; for `O=C(Nc1ccccc1-c1nc2ccccc2s1)c1ccc(-c2ccccc2)cc1` [Compound 105, Biphenyl-4-carboxylic acid (2-benzothiazol-2-yl-phenyl)-amide], less than 4.60; for `CCCCOc1cccc(C(=O)Nc2ccccc2-c2nc3ccccc3s2)c1` [Compound 106, N-(2-Benzothiazol-2-yl-phenyl)-3-butoxy-benzamide], less than 4.60.
`Cc1ccc(C(=O)Nc2ccccc2-c2nc3ccccc3s2)cc1[N+](=O)[O-]` [Compound 107, N-(2-Benzothiazol-2-yl-phenyl)-4-methyl-3-nitro-benzamide]: the pEC50 under setting [1] was less than 4.60.
On the same count and under the same terms, in the case of `COc1c(Cl)cc(C(=O)Nc2ccccc2-c2nc3ccccc3s2)cc1Cl` [Compound 108, N-(2-Benzothiazol-2-yl-phenyl)-3,5-dichloro-4-methoxy-benzamide] it was less than 4.60; in that of `O=C(Nc1ccccc1-c1nc2ccccc2s1)c1cccc2c(Cl)cccc12` [Compound 109, 5-Chloro-naphthalene-1-carboxylic acid (2-benzothiazol-2-yl-phenyl)-amide], less than 4.60.
With `O=C(Nc1ccccc1-c1nc2ccccc2s1)c1cccc(F)c1` [Compound 110, N-(2-Benzothiazol-2-yl-phenyl)-3-fluoro-benzamide], the pEC50 under setting [1] was less than 4.60.
Regarding `O=C(Nc1ccccc1-c1nc2ccccc2s1)c1cccc(OCc2ccccc2)c1` [Compound 111, N-(2-Benzothiazol-2-yl-phenyl)-3-benzyloxy-benzamide], the pEC50 under setting [1] was less than 4.60.
Same read-out and setting: for `COc1ccccc1C(=O)Nc1ccccc1-c1nc2ccccc2s1` [Compound 112, N-(2-Benzothiazol-2-yl-phenyl)-2-methoxy-benzamide] the value was less than 4.60; for `COc1ccc(C(=O)Nc2ccccc2-c2nc3ccccc3s2)cc1[N+](=O)[O-]` [Compound 113, N-(2-Benzothiazol-2-yl-phenyl)-4-methoxy-3-nitro-benzamide], less than 4.60.
`Cc1c(C(=O)Nc2ccccc2-c2nc3ccccc3s2)cccc1[N+](=O)[O-]` [Compound 114, N-(2-Benzothiazol-2-yl-phenyl)-2-methyl-3-nitro-benzamide]: the negative-log EC50 (pEC50) under setting [1] is less than 4.60.
Still for that read-out and setting: in the case of `Cc1cc(C(=O)Nc2ccccc2-c2nc3ccccc3s2)ccc1[N+](=O)[O-]` [Compound 115, N-(2-Benzothiazol-2-yl-phenyl)-3-methyl-4-nitro-benzamide] it was less than 4.60.
The same measure, in the same setting: in the case of `O=C(Nc1ccccc1-c1nc2ccccc2s1)c1ccccc1Br` [Compound 116, N-(2-Benzothiazol-2-yl-phenyl)-2-bromo-benzamide] it was less than 4.60; in that of `Cc1ccc(C(=O)Nc2cc(-c3nc4ccccc4s3)ccc2C)c(C)c1` [Compound 117, N-(5-Benzothiazol-2-yl-2-methyl-phenyl)-2,4-dimethyl-benzamide], less than 4.60; in that of `COc1cccc(OC)c1C(=O)Nc1ccc(Cl)c(-c2nc3ccccc3s2)c1` [Compound 118, N-(3-Benzothiazol-2-yl-4-chloro-phenyl)-2,6-dimethoxy-benzamide], less than 4.60.
Same read-out and setting: for `Cc1cc(C(=O)Nc2ccc(-c3nc4ccccc4s3)c(Cl)c2)ccc1[N+](=O)[O-]` [Compound 119, N-(4-Benzothiazol-2-yl-3-chloro-phenyl)-3-methyl-4-nitro-benzamide] the value was less than 4.60.
On to `O=C(Nc1ccc(-c2nc3ccccc3s2)c(Cl)c1)c1cccc([N+](=O)[O-])c1` [Compound 120, N-(4-Benzothiazol-2-yl-3-chloro-phenyl)-3-nitro-benzamide], for which the pEC50 under setting [1] is less than 4.60.
`Cc1ccc(-c2nc3ccccc3s2)cc1NC(=O)c1ccc2c(c1)OCO2` [Compound 121, Benzo[1,3]dioxole-5-carboxylic acid (5-benzothiazol-2-yl-2-methyl-phenyl)-amide]: the pEC50 (Vero, 48 h) was less than 4.60.
As to `Cc1cc(C)cc(C(=O)Nc2cc(-c3nc4ccccc4s3)ccc2Cl)c1` [Compound 122, N-(5-Benzothiazol-2-yl-2-chloro-phenyl)-3,5-dimethyl-benzamide], the pEC50 under setting [1] is less than 4.60.
On the same count and under the same terms, in the case of `O=C(Nc1ccc(-c2nc3ccccc3s2)c(Cl)c1)c1ccc(F)cc1` [Compound 123, N-(4-Benzothiazol-2-yl-3-chloro-phenyl)-4-fluoro-benzamide] it was less than 4.60; in that of `O=C(Nc1ccc(-c2nc3ccccc3s2)c(Cl)c1)c1ccccc1[N+](=O)[O-]` [Compound 124, N-(4-Benzothiazol-2-yl-3-chloro-phenyl)-2-nitro-benzamide], less than 4.60.
